{"source": "patent US6737383B1", "about": "“Herbicidal oxadiazolidines” (priority 1999, dated 2004)", "key": {"scentless chamomile": {"tested_on": "scentless chamomile", "assay": "Test E scentless chamomile", "assay_type": "in vivo, Matricaria inodora", "conditions": "Preemergence"}, "Amaranthus rudis (AMATA)": {"tested_on": "Amaranthus rudis (AMATA)", "assay": "Test F preemergence, alone and in mixture with rimsulfuron, AMATA", "assay_type": "in vivo", "conditions": "21 days after treatment, 0-100 scale", "procedure": "(§1) Abutilon theophrasti (ABUTH), Chenopodium album (CHEAL), Amaranthus rudis (AMATA), Setaria faberii (SETFA), Panicum dichotomiflorum (PANDI), and Digitaria sanguinalis (DIGSA) were grown from seed in pots of an artificial potting mixture in a greenhouse. Compounds of the present invention were applied at 70 and 105 g ai/ha preemergence. Rimsulfuron was applied at 8.8 and 17.5 g ai/ha. Mixtures of the compounds of the present invention and rimsulfuron were also applied.\n(§2) Following application, the plants were maintained by watering as needed. A fertilizer solution of Peter's 20-20-20 (10 pounds/5 gallons of water) plus Sprint 330, a Iron Chelate micronutrient, (113.5 grams/5 gallons of water) was injected into the water with an Anderson fertilizer injection system to provide approximately 219 ppm of nitrogen with each watering. Artificial lighting was used to supplement natural light to produce a 14 hour photoperiod and: an additional one hour light period was used between 1:00 am to 2:00 am for a night interruption. Greenhouse temperatures were targeted for 27° C. in the day and 21° C. at night. At 21 days after treatment, all plants were evaluated for injury as compared to control plants that were sprayed only with non-phytotoxic solvent.\n(§3) Colby's equation was used to calculate the expected additive herbicidal effect of the mixtures of Compound 21 and the mixture partners listed above. […]"}, "windgrass": {"tested_on": "windgrass", "assay": "Test E windgrass", "assay_type": "in vivo, Apera spica-venti", "conditions": "Postemergence", "procedure": "Compounds evaluated in this test were formulated in a non-phytotoxic solvent mixture which included a surfactant and applied to plants that were in the 1- to 4-leaf stage (postemergence application). A mixture of sandy loam soil and greenhouse potting mix in a 60:40 ratio was used for the postemergence test.\nPlantings of these crops and weed species were adjusted to produce plants of appropriate size for the postemergence test. All plant species were grown using normal greenhouse practices. […]\nTreated plants and untreated controls were maintained in a greenhouse for approximately 21 to 28 days, after which all treated plants were compared to untreated controls and visually evaluated. […]"}, "bermuda-grass": {"tested_on": "bermuda-grass", "assay": "Test D bermudagrass", "assay_type": "in vivo, Cynodon dactylon", "conditions": "Postemergence, 0 to 100 scale"}, "Green foxtail [1]": {"tested_on": "Green foxtail", "assay": "Test D green foxtail", "assay_type": "in vivo", "conditions": "Postemergence, 0 to 100 scale, 0 no injury, 100 complete control"}, "Green foxtail [2]": {"tested_on": "Green foxtail", "assay": "Test D green foxtail", "assay_type": "in vivo", "conditions": "Rate 250 g/ha; Postemergence; 0 to 100 scale"}, "common ragweed": {"tested_on": "common ragweed", "assay": "Test D common ragweed", "assay_type": "in vivo, Ambrosia elatior", "conditions": "Postemergence, 0 to 100 scale"}, "common pursiane": {"tested_on": "common pursiane", "assay": "Test D common purslane", "assay_type": "in vivo, Portulaca oleracea", "conditions": "Postemergence, 0 to 100 scale"}, "Green foxtail [3]": {"tested_on": "Green foxtail", "assay": "Test D green foxtail", "assay_type": "in vivo", "conditions": "Postemergence, 0 to 100 scale, 0 no injury, 100 complete control", "remark": "listed apart in the source"}, "Johnson grass": {"tested_on": "Johnson grass", "assay": "Test D Johnson grass", "assay_type": "in vivo, Sorghum halepense", "conditions": "Postemergence, 0 to 100 scale"}, "itchgrass": {"tested_on": "itchgrass", "assay": "Test D itchgrass", "assay_type": "in vivo, Rottboellia exaltata", "conditions": "Postemergence, 0 to 100 scale"}, "[4]": {"tested_on": "Panicum dichotomiflorum (PANDI)", "assay": "Test F preemergence, alone and in mixture with rimsulfuron, PANDI", "assay_type": "in vivo", "conditions": "21 days after treatment, 0-100 scale", "procedure": "as §1, §2, §3"}, "[5]": {"tested_on": "Chenopodium album (CHEAL)", "assay": "Test F preemergence, alone and in mixture with rimsulfuron, CHEAL", "assay_type": "in vivo", "conditions": "21 days after treatment, 0-100 scale", "procedure": "as §1, §2, §3"}, "Alexandergrass": {"tested_on": "Alexandergrass", "assay": "Test D Alexandergrass", "assay_type": "in vivo, Brachiaria plantaginea", "conditions": "Postemergence, 0 to 100 scale"}, "pitted morningglory": {"tested_on": "pitted morningglory", "assay": "Test D pitted morningglory", "assay_type": "in vivo, Ipomoea lacunosa", "conditions": "Postemergence, 0 to 100 scale"}, "[6]": {"tested_on": "Digitaria sanguinalis (DIGSA)", "assay": "Test F preemergence, alone and in mixture with rimsulfuron, DIGSA", "assay_type": "in vivo", "conditions": "21 days after treatment, 0-100 scale", "procedure": "as §1, §2, §3"}, "[7]": {"conditions": "Alone: Cmpd. rate 70, Rimsulfuron 0"}, "[8]": {"conditions": "Alone: Cmpd. rate 105, Rimsulfuron 0"}, "[9]": {"conditions": "Rate 16 g/ha, 0 no injury, 100 complete control"}, "[10]": {"conditions": "Rate 32 g/ha, 0 no injury, 100 complete control"}, "[11]": {"conditions": "Rate 64 g/ha, 0 no injury, 100 complete control"}, "[12]": {"conditions": "Rate 125 g/ha, 0 no injury, 100 complete control"}}, "data": [{"compound": "CC(C)N(C(=O)n1oc(=O)n(C(C)C)c1=O)c1ccc(Cl)cc1", "note": "[Compound 114]", "values": [{"measurement": "Plant response rating, Scentless chamo", "setting": "scentless chamomile; Rate 125 g/ha, 0 to 100 scale (0 no effect, 100 complete control)", "result": 30}, {"measurement": "Plant response rating, Scentless chamo", "setting": "scentless chamomile; Rate 250 g/ha, 0 to 100 scale", "result": 30}, {"measurement": "Plant response rating, Scentless chamo", "setting": "scentless chamomile; Rate 500 g/ha, 0 to 100 scale where 0 is no effect and 100 is complete control", "result": 10}]}, {"compound": "CC(C)N(C(=O)n1oc(=O)n(C(C)C)c1=O)c1ccc(F)cc1", "note": "[Compound 131]", "values": [{"measurement": "AMATA Observed", "setting": "Amaranthus rudis (AMATA); [7]", "result": 50, "unit": "%"}, {"measurement": "AMATA Observed", "setting": "Amaranthus rudis (AMATA); [8]", "result": 40, "unit": "%"}, {"measurement": "Plant response rating, Windgrass", "setting": "windgrass; Rate 62 g/ha, 0 to 100 scale", "result": 85}, {"measurement": "Windgrass plant response rating", "setting": "windgrass; Rate 250 g/ha, 0 to 100 scale where 0 is no effect and 100 is complete control", "result": 90}, {"measurement": "Plant response rating, Bermudagrass", "setting": "bermuda-grass; [9]", "result": 30}, {"measurement": "Plant response rating, Bermudagrass", "setting": "bermuda-grass; [10]", "result": 90}, {"measurement": "Plant response rating, Bermudagrass", "setting": "bermuda-grass; [11]", "result": 100}, {"measurement": "Plant response rating, Bermudagrass", "setting": "bermuda-grass; [12]", "result": 100}, {"measurement": "Plant response rating, Bermudagrass", "setting": "bermuda-grass; Rate 250 g/ha", "result": 100}, {"measurement": "Plant response rating, Green foxtail", "setting": "Green foxtail [1]; Rate 16 g/ha", "result": 0}, {"measurement": "Plant response rating, Green foxtail", "setting": "Green foxtail [1]; Rate 32 g/ha", "result": 60}, {"measurement": "Plant response rating, Green foxtail", "setting": "Green foxtail [2]", "result": 100}, {"measurement": "Plant response rating, C. ragweed", "setting": "common ragweed; [9]", "result": 0}, {"measurement": "Plant response rating, C. ragweed", "setting": "common ragweed; [10]", "result": 0}, {"measurement": "Plant response rating, C. ragweed", "setting": "common ragweed; [11]", "result": 0}, {"measurement": "Plant response rating, C. ragweed", "setting": "common ragweed; [12]", "result": 90}, {"measurement": "Plant response rating, C. ragweed", "setting": "common ragweed; Rate 250 g/ha", "result": 100}, {"measurement": "Plant response rating, C. purslane", "setting": "common pursiane; [9]", "result": 0}, {"measurement": "Plant response rating, C. purslane", "setting": "common pursiane; [10]", "result": 0}, {"measurement": "Plant response rating, C. purslane", "setting": "common pursiane; [11]", "result": 0}, {"measurement": "Plant response rating, C. purslane", "setting": "common pursiane; [12]", "result": 0}, {"measurement": "Plant response rating, C. purslane", "setting": "common pursiane; Rate 250 g/ha", "result": 0}, {"measurement": "Green foxtail plant response rating", "setting": "Green foxtail [3]; Rate 64 g/ha", "result": 100}, {"measurement": "Green foxtail plant response rating", "setting": "Green foxtail [3]; Rate 125 g/ha", "result": 100}, {"measurement": "Plant response rating Johnsongrass", "setting": "Johnson grass; [9]", "result": 0}, {"measurement": "Plant response rating Johnsongrass", "setting": "Johnson grass; [10]", "result": 0}, {"measurement": "Plant response rating Johnsongrass", "setting": "Johnson grass; [11]", "result": 30}, {"measurement": "Plant response rating Johnsongrass", "setting": "Johnson grass; [12]", "result": 60}, {"measurement": "Plant response rating Johnsongrass", "setting": "Johnson grass; Rate 250 g/ha", "result": 100}, {"measurement": "Plant response rating, Itchgrass", "setting": "itchgrass; [9]", "result": 0}, {"measurement": "Plant response rating, Itchgrass", "setting": "itchgrass; [10]", "result": 0}, {"measurement": "Plant response rating, Itchgrass", "setting": "itchgrass; [11]", "result": 20}, {"measurement": "Plant response rating, Itchgrass", "setting": "itchgrass; [12]", "result": 100}, {"measurement": "Plant response rating, Itchgrass", "setting": "itchgrass; Rate 250 g/ha", "result": 100}, {"measurement": "PANDI Observed", "setting": "[4]; [7]", "result": 100, "unit": "%"}, {"measurement": "PANDI Observed", "setting": "[4]; [8]", "result": 95, "unit": "%"}, {"measurement": "CHEAL Observed", "setting": "[5]; [7]", "result": 60, "unit": "%"}, {"measurement": "CHEAL Observed", "setting": "[5]; [8]", "result": 95, "unit": "%"}, {"measurement": "Plant response rating, Alexandergrass", "setting": "Alexandergrass; [9]", "result": 0}, {"measurement": "Plant response rating, Alexandergrass", "setting": "Alexandergrass; [10]", "result": 50}, {"measurement": "Plant response rating, Alexandergrass", "setting": "Alexandergrass; [11]", "result": 100}, {"measurement": "Plant response rating, Alexandergrass", "setting": "Alexandergrass; [12]", "result": 100}, {"measurement": "Plant response rating, Alexandergrass", "setting": "Alexandergrass; Rate 250 g/ha", "result": 100}, {"measurement": "Plant response rating, P. morninglory", "setting": "pitted morningglory; [9]", "result": 0}, {"measurement": "Plant response rating, P. morninglory", "setting": "pitted morningglory; [10]", "result": 0}, {"measurement": "Plant response rating, P. morninglory", "setting": "pitted morningglory; [11]", "result": 0}, {"measurement": "Plant response rating, P. morninglory", "setting": "pitted morningglory; [12]", "result": 0}, {"measurement": "Plant response rating, P. morninglory", "setting": "pitted morningglory; Rate 250 g/ha", "result": 100}, {"measurement": "DIGSA Observed", "setting": "[6]; [7]", "result": 100, "unit": "%"}, {"measurement": "DIGSA Observed", "setting": "[6]; [8]", "result": 100, "unit": "%"}]}]}
